Measurements published in patent US20110039869A1, “COMPOSITION FOR INHIBITING THE ACTIVITY OF INOSITOL 1,4,5-TRIPHOSPHATE RECEPTOR SUBTYPE III” (Korea Institute of Science and Technology, priority 2008, published 2011).
Entries after “also recorded” stand apart in the source; their conditions may differ. Where two headings read alike, the source gives them in different places.

Key:
[1] = system: U178MG cells; assay: Ca2+ imaging: block against agonist-induced intracellular Ca2+ release in U178MG cells; assay type: cell-based, human; details: for TFLLR induced Ca2+ release: 10 mM compound; for IC50: Homo sapiens, U178MG cells
Protocol: 100 seconds after the treatment, the cells were divided into two separate groups, each being stimulated with GPCR (G-protein coupled receptors) agonists, i.e., […] or 10 μM bradykinin, respectively. […] The measurement of Ca^2+ concentration through the measurement of inward current was conducted as described in ‘Justin Lee, et al., The Journal of Physiology, Astrocytic control of synaptic NMDA receptor, 2007’, which is hereby incorporated by reference for all purposes as if fully set forth herein.
After 100 seconds, the cells were stimulated with 30 μM TFLLR.
Error bars indicate SEM. […] Such substance may include: iso-propyl theophylline, 7-(β-3-hydroxyethyl)theophylline, xanthine, theophylline, and 1,7-dimethyl-3-isobutyl xanthine.

[2] = system: shRNA for IP3R3 expressing U178MG cells; assay: Block against Ca2+ responses in U178MG cells expressing shRNA for IP3R3; assay type: cell-based, human
Protocol: FIGS. 6d and 6e are Ca^2+ imaging result for U178MG cells, which were transfected with GFP-attached shRNA for IP3R3 via electroporation.

[3] = system: U178MG, U87MG, U373MG, and T98G cells; assay: Matrigel invasion assay; assay type: cell-based, human; details: 24 h; 1, 2, 5, 10 mM caffeine; dose dependent
Protocol: The cell lines were obtained from ATCC. […] Cell invasion was assayed using transwell inserts (Corning, N.Y., USA) containing […] pore size in 24-well culture plates. For invasion assay, inserts were coated with 2 mg/ml basement membrane Matrigel (BD Bioscience, Bedford, Mass., USA). 1×10^5 cells in serum-free medium (FBS, DMEM, from GIBCO, Invitrogen, USA) were plated onto the upper side of insert and complete medium was placed in the lower chamber to act as a chemoattractant. After 24 h of incubation at 37° C., the cells on the upper side of insert were removed by wiping with a cotton swab and cells migrated to the lower side of membrane were stained with DAPI (Molecular Probes, Invitrogen, USA) and randomly photographed with microscopy at ×40 magnification. The mean number of untreated cells was considered as 100% invasion.

[4] = system: glioma; assay: Soft agar assay (colony formation); assay type: cell-based, human; details: 0.5, 1, 2, 5, 10 mM caffeine; 14 to 17 days; dose dependent
Protocol: Cells (1×10^4) were seeded into 6-well plates in a soft agar (0.3%, Difco) overlaying a 0.6% base agar. […] Cells were incubated at 37° C. for 14 to 17 days to allow colonies to develop. Afterward colonies were stained with 0.05% cresyl violet and photographed. The group without caffeine treatment was used as a control. Each assay was done in triplicate (n=3).

[5] = system: U178MG glioma cells; assay: Invasion of U178MG glioma cells in organotypic hippocampal slice cultures (OHSCs); assay type: cell-based, human; details: 1, 2, 5, 10 mM caffeine; 120 hours vs 1 hour; proportional to concentration
[6] = system: U87MG cells; assay: Xenograft tumor growth assay; assay type: in vivo, athymic mice (Balb/c nu/nu); details: caffeine 1 mg/ml in drinking water from day 7; 4 weeks
Protocol: Five-week-old athymic mice (Balb/c nu/nu) were obtained from Central Lab. Animal Inc. (Japan). For the xenograft tumor growth assay, U87MG cells (3×10^5 cells/150 ul PBS) were injected subcutaneously into the right flanks of the mice (n=5 to 10 mice per group), and the experiment was conducted in triplicate. […] The control animals were given distilled water. Tumor mass was estimated twice per week for 4 weeks, and tumor volumes were calculated by the formula: […]

[7] = system: U178MG cells; assay: Dependence of caffeine action on store-operated channels or store depletion; assay type: cell-based, human; details: 10 mM caffeine; thapsigargin 1 μM, cyclopiazonic acid 20 μM
Protocol: Firstly, 1 μM thapsigargin was applied for 2 min in Ca^2+ free HEPES buffer. After depletion of Ca^2+ from endoplasmic reticulum, extra solution was changed to 2 mM Ca^2+HEPES buffer.

[8] = system: U178MG cells; assay: Live imaging of cell migration; assay type: cell-based, human; details: 10 minute intervals for 9 hours
[9] = system: GBM, U178MG, T98G, U87MG and HEK293; assay: Block against GPCR agonist-induced intracellular Ca2+ release in various cell types; assay type: cell-based, human; details: 10 mM caffeine
Protocol: The cell lines were obtained from Department of Neurosurgery, Seoul National University College of Medicine (GBM), Emory Uni. ([…]) and ATCC (T98G, U87MG, and HEK293), respectively. […] Error bars are mean±SEM.

[10] = system: U87MG cells; assay: Orthotropic implantation model, survival rate; details: 1 mg/ml caffeine containing drinking water
[11] = system: U178MG, U87MG, wtEGFR, and ΔEGRF cells; assay: Scrape motility assay; assay type: cell-based, human; details: 24 hours; 10 mM caffeine, 1 μM thapsigargin, 10 μM 2-APB, 20 μM CPA, 50 μM BAPTA-AM, 10 μM ryanodine
Protocol: The cell lines were obtained from Emory Uni (U178MG) and ATCC (U87MG, T98G, and M59K). All cell lines were grown as monolayers in 12-well culture plates in serum-containing media (Emory Uni). […] To prevent proliferation, fluorodeoxyuridine (FdU/U; Sigma) was added. After incubation for 24 hours, the cells were fixed in 4% paraformaldehyde. The area of repopulation of three 10× fields within the scrape areas were determined and the mean percentage of scrape area to wound closure was determined.

For `CCn1cnc2c1c(=O)n(C)c(=O)n2C` [7-ethyl theophylline], the “TFLLR induced Ca2+ release” value ([1]; 30 μM TFLLR) was “no inhibition”.

For `Cn1c(=O)c2c(ncn2C)n(C)c1=O` [caffeine], the “increase of [Ca2+]i after stimulation with EGF or bradykinin” value ([1]; 10 mM caffeine, 100 ng/ml EGF or 10 μM bradykinin) was “no significant increase”, the “TFLLR induced Ca2+ release” value ([1]; 30 μM TFLLR) was “inhibited” and the “increase of TFLLR-induced intracellular Ca2+ concentration” value ([1]; 0.3, 3, 10, 30 mM caffeine, 30 μM TFLLR, concentration dependent) was “inhibits the increase”. The IC50 ([1]; EGF 100 ng/ml, read-out: IC50, Ca2+ release evoked by EGF) was 1870 µM, the IC50 ([1]; TFLLR 30 μM, read-out: IC50, Ca2+ release evoked by TFLLR) was 2450 µM and the “block against Ca2+ responses, IP3R3 silenced by shRNA” value [2] was 20%. For the same compound, the “invasion through Matrigel” value [3] was “reduced the invasion rate; also recorded: significantly inhibited”, the “proliferation / anchorage-independent growth (colonies)” value [4] was “reduced the anchorage-independent growth; also recorded: significantly inhibited” and the “invasion area of DiI-stained cells” value [5] was “invasion area was reduced”. The “increase of tumor mass” value [6] was “significantly inhibited”, the “cause of Ca2+ block (store depletion, store-operated channels)” value [7] was “not due to Ca^2+ depletion or block of Ca^2+ flow through TRPC” and the “migration of U178MG cells” value [8] was “significantly slowed down”. For the same compound, the “GPCR-induced intracellular Ca2+ release in GBM, U178MG, T98G, U87MG and HEK293” value [9] was “inhibited”, the “degree of inhibition of Ca2+ responses, U178MG cells compared with other cell types” value [9] was “highest blocking effect” and the “intracellular Ca2+ release” value ([9]; 10 μM bradykinin) was “blocked”. For the same compound, the “intracellular Ca2+ release / Ca2+ responses, HEK293T cell line” value ([9]; 30 μM TFLLR) was “blocked; also recorded: lowest blocking effect” and the survival rate [10] was “significantly increase the survival rate”.

For `COc1ccc2c(c1)CC[C@@H]1[C@@H]2CC[C@]2(C)[C@@H](NCCCCCCN3C(=O)C=CC3=O)CC[C@@H]12` [U73122], the “release of Ca2+ from intracellular stores in response to activation of GPCRs and RTKs” value ([1]; GBM cells) was “completely inhibited”.

For ryanodine, the “motility (wound closure by cell migration)” value (“motility” for short) [11] was “did not show any cell migration as such”.

For `Cn1c(=O)c2c(ncn2CCO)n(C)c1=O` [7-(β-3-hydroxyethyl)theophylline], the “blocking effect on IP3R3 mediated-Ca2+ response” value ([1]; caffeine analogs, FIG. 10c) was “excellent selective blocking effect”.

For `C/C=C(/C)C(=O)O[C@H]1C(C)=C2[C@H]([C@@H]1OC(=O)CCCCCCC)[C@@](C)(OC(C)=O)C[C@H](OC(=O)CCC)[C@@]1(O)[C@H]2OC(=O)[C@@]1(C)O` [thapsigargin], the “subsequent induction increase in [Ca2+]i by bradykinin after store depletion” value ([1]; store depletion by thapsigargin) was “completely inhibited” and the “motility” value [11] was “mimicked”.

In the case of `CC(C)Cn1c(=O)n(C)c(=O)c2c1ncn2C` [1,7-dimethyl-3-isobutyl xanthine], the “blocking effect on IP3R3 mediated-Ca2+ response” value ([1]; caffeine analogs, FIG. 10c) is reported as “excellent selective blocking effect”.

In the case of `Cn1c(=O)c2[nH]cnc2n(C)c1=O` [theophylline], the “blocking effect on IP3R3 mediated-Ca2+ response” value ([1]; caffeine analogs, FIG. 10c) is reported as “excellent selective blocking effect”.

In the case of `O=c1[nH]c(=O)c2[nH]cnc2[nH]1` [xanthine], the “blocking effect on IP3R3 mediated-Ca2+ response” value ([1]; caffeine analogs, FIG. 10c) is reported as “excellent selective blocking effect”.

In the case of `CC(=O)OCOC(=O)CN(CC(=O)OCOC(C)=O)c1ccccc1OCCOc1ccccc1N(CC(=O)OCOC(C)=O)CC(=O)OCOC(C)=O` [BAPTA-AM], the “motility” value [11] is reported as “mimicked”.

`CC(C)n1cnc2c1c(=O)n(C)c(=O)n2C` [iso-propyl theophylline] was tested, and the “blocking effect against Ca2+ release (% block)” value ([1]; caffeine analogs, FIG. 10c) was “some degree of blocking effects” and the “blocking effect on IP3R3 mediated-Ca2+ response” value ([1]; caffeine analogs, FIG. 10c) was “excellent selective blocking effect”.

`NCCOB(c1ccccc1)c1ccccc1` [2-APB] was tested, and the “motility” value [11] was “mimicked”.
